# Data from patent publication US11028084B2, “Selective inhibitors of gentotoxic steress-induced IKK/NF-κB pathways” (Max-Delbrück-Centrum für Molekulare Medizin in der …, priority 2016, dated 2021).
# Tests used:
# [1] = target: T1, nuclear IKKγ-PIASy-PARP1-ATM signalosome (Mus musculus, UniProt O88522+P11103+Q62388+Q9JM05); assay: Nuclear PARP1-signalosome formation, IKKγ co-immunoprecipitation, MEF cells; assay type: cell-based; conditions: irradiation
# T1 construct: endogenous in cells; host or cells: MEF (mouse embryonic fibroblasts)
# Experimental: FIG. 8: (A) HepG2 cells were pre-treated with DMSO or MW01 and irradiated. Nuclear cell extracts (NE) were used for PIASy immunoprecipitation (IP). Western blot membranes were incubated with indicated antibodies. (B) Experiment as shown in (A), but with IKKγ IP. (C) Experiment as shown in (B), but done in HEK293 cells. (D) Experiment done as shown in […], but repeated in MEF cells.
# Following cell lysis the protein concentration of samples was determined. For input controls, 40 μg lysate were mixed with 6×SDS-buffer and denatured by heating to 95° C. for 4 min. Approximately 1500 μg protein lysate was used for pulldown and samples volumes were equalled with lysis buffer. Lysates were precleared with 30 μl sepharose A or sepharose G beads (depending on the antibody type used for pulldown) for 30 min, and centrifuged for 5 min at 1,500×g. The supernatant was transferred to a new reaction tube. Primary antibody (2-2.5 μg) was added to the cleared lysate for immunoprecipitation overnight while rotating at 4° C. The next day 30 μl sepharose beads per sample were used for immobilisation of antibodies. Following 4 washes with IP wash buffer precipitated proteins were eluted by mixing with 3×SDS-buffer and heating to 95° C. for 4 min.
# [2] = test system: IKKγ phosphorylation at S85; assay: IKKγ S85 phosphorylation after irradiation, WB, MEF cells; assay type: cell-based, mouse; conditions: MEF (murine)
# Experimental: FIG. 11: (A) HEK293 cells were pre-incubated with DMSO, MW01 or ATM inhibitor KU55933 and irradiated. Lysates were subjected to SDS-PAGE/WB. The specific IKKγ S85 band (lower band) was identified by induction following irradiation and by sensitivity to ATMi and λ-phosphatase (λ-PP) treatment. The asterisk indicates a non-specific band that was neither inducible nor ATMi sensitive. (B) Experiment was done as shown in (A) using MEF cells. (C) HEK293 cells were pre-treated with DMSO or MW01, irradiated and lysed. Lysates were used to immunoprecipitate IKKγ using an IKKγ antibody.
# [3] = test system: HT1080 cells; assay: Annexin V staining, flow cytometry, HT1080 cells; assay type: cell-based; conditions: HT1080, 10 Gy
# Experimental: FIG. 16: (A) U2OS cells were pre-treated with DMSO or MW01 and irradiated. Cells were lysed 8 h post γ-IR and were used for western blotting and immunochemical staining. (B) HEK293 cells were pre-treated with DMSO or MW01 and irradiated. After 48 h cells were fixed and stained with crystal violet. Dissolved crystal violet was used for absorbance measurement in a visible light spectrophotometer at a wavelength of 595 nm. (C) HEK293 cells were pre-treated with DMSO or MW01 and irradiated. The percentage of viable cells within the population was calculated by exclusion of annexin V and propidium-iodide positive cells measured by flow cytometry. (D) MEF cells were pre-treated with DMSO or MW01 and irradiated. Cells were used for annexin V staining 24 h and 48 after γ-IR. Percentage of annexin V positive cell population was analysed using a flow cytometer. (E) Experiment done as shown in (D) but with HT1080 cells processed 8 h after irradiation. Statistical significance was calculated using students t-test.
# Cells were washed with ice-cold PBS and detached from growing dishes using Trypsin/EDTA solution. Detached cells were centrifuged at 300×g for 5 min. […]
# In addition, the sensitising effect of NF-κB inhibition was tested in HT1080 cells. After pre-treatment with DMSO or MW01, cells were irradiated with a dose of 10 Gy and analysed by annexin V staining.
# [4] = test system: DNA repair mechanisms; assay: γH2AX foci per nucleus, immunofluorescence, U2OS cells; assay type: cell-based, human; conditions: 5 μM, untreated (non-irradiated) cells, 5 hours
# Experimental: FIG. 17: U2OS cells grown on coverslips were incubated 30 min with DMSO or MW01 (5 μM). Then, cells were γ-irradiated (5 Gy) or mock irradiated (mock IR). After 5 hours, cells were fixed and subjected to immunofluorescence staining procedure. DNA damage-indicating γH2AX foci and nuclei n≥480 nuclei per condition) were counted for the calculation of average foci per nucleus. Significance was calculated using student's t-test.
# U2OS cells were grown on coverslips and incubated 30 min with DMSO or MW01 (5 μM). Then, cells were γ-irradiated (5 Gy) or mock irradiated (mock IR). After 5 hours, cells were fixed and subjected to immunofluorescence staining procedure. DNA damage-indicating γH2AX foci and nuclei (n≥480 nuclei per condition) were counted for the calculation of average foci per nucleus. Significance was calculated using student's t-test.
# [5] = target: PARP1 (Homo sapiens, UniProt P09874); assay: PARP1 enzymatic activity, PAR chain formation, U2OS cells; assay type: cell-based; design: Experiment performed as described for (A), but using U2OS cells; endogenous in cells; host or cells: U2OS; conditions: γ-irradiation
# Experimental: FIG. 10: (A) MEF cells were pre-treated with the indicated substances, irradiated and cell lysates were used for poly(ADP)-ribose probing using a specific antibody. (B) Experiment performed as described for (A), but using U2OS cells.
# FIG. 14: (A) U2OS cells were pre-treated with different concentrations of olaparib prior to co-treatment with etoposide. Whole cell lysis was performed after 90 min and cleared lysates were used for WB with indicated antibodies. (B) U2OS cells were pre-treated with DMSO, olaparib or the ATM inhibitor Ku55933 and co-treated with etoposide. Cells were harvested after 45 min and subjected to SDS-PAGE/WB. Membranes were stained with the indicated antibodies. The experiment of (B) was performed simultaneously to the experiments of (A) and (E) to control functionality of olaparib in inhibiting PAR chain formation. (C) Densitometrical analyses of (A) and two further independent experiments done as shown in (A). (D) U2OS cells were pre-treated with the substances as indicated prior to irradiation. After 90 min mRNA was isolated, transcribed into cDNA and was used for expression analyses of the indicated genes using quantitative real-time PCR (qRT-PCR). (E) HepG2 cells were pre-treated with the PARP inhibitors olaparib, 3-AB and EB-47 prior to γ-irradiation. Cells were harvested after 15 and 90 min and subjected to SDS-PAGE/WB. […]
# Chain of PARP1 (P09874 whole entry): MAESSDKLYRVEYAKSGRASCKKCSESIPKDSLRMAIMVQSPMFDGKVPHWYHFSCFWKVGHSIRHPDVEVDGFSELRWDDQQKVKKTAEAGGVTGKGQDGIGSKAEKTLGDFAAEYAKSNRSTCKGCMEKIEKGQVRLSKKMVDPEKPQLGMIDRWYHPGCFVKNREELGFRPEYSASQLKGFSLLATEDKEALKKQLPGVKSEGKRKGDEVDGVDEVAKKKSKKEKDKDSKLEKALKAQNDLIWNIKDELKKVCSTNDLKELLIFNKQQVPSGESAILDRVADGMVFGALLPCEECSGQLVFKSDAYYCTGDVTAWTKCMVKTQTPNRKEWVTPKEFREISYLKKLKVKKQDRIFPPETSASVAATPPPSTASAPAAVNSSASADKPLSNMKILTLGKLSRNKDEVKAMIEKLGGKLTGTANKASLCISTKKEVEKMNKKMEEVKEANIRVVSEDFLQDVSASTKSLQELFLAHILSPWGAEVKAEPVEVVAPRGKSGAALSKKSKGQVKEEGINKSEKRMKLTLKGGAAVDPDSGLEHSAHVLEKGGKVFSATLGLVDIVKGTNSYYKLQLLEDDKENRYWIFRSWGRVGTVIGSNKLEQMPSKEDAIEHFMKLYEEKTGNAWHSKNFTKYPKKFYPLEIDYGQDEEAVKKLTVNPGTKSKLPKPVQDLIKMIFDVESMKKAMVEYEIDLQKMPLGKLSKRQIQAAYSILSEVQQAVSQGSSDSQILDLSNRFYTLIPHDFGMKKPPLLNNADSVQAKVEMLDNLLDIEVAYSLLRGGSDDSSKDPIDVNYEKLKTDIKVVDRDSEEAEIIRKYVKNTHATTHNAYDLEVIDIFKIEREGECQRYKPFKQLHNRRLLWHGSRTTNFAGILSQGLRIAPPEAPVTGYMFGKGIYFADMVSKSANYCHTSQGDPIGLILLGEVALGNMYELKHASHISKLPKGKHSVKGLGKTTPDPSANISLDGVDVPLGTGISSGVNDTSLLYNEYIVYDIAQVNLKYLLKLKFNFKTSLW
compound,measurement,setting,value
"COc1ccc2c(c1OC)c(=O)n1c3ccc(O)cc3c3ccnc2c31 [MW01, 12-hydroxy-6,7-dimethoxy-8H-benzo[c]indolo[3,2,1-ij][1,5]naphthyridin-8-one]","interaction of IKKγ with PARP1, p-ATM S1981 or PIASy",[1],abrogation of the interaction
same,phosphorylation of IKKγ at S85,[2],abolished
same,population of early apoptotic cells,[3],roughly doubled
same,annexin V staining compared to the irradiated control,[3]; 8 h after irradiation,significant increase
same,γH2AX foci per cell,[4],significant increase
same,PAR chain formation / PARP1 enzymatic activity,[5],did not interfere with activation of PARP1 enzymatic activity
